Test results as given in US10376520B2, “Methods for the treatment of cardiovascular disorders” (Galapagos NV, priority 2015, dated 2019).

Tested on: RA patients
Assay: [HDL] determination, Study 2 (RA patients, monotherapy)
Format: in vivo, human
Description: Randomized, double-blind, placebo-controlled, multicenter, phase IIb dose finding study of Compound 1 (dosed as a [Compound 1:HCl:3H2O]) administered for 24 weeks as monotherapy to subjects with moderately to severely active rheumatoid arthritis who have an inadequate response to methotrexate alone
Double-blind, placebo-controlled, monotherapy study in subjects with moderately to severely active RA who have an inadequate response to methotrexate (MTX) (oral or parenteral).
280 subjects randomized to one of 3 doses of Compound 1 (dosed as a [Compound 1:HCl:3H2O]) or to placebo, given once daily (q.d.).
Twelve weeks of treatment with Compound 1 (dosed as a [Compound 1:HCl:3H2O]) at 50 mg, 100 mg, or 200 mg q.d.; or placebo. At Week 12, all subjects on placebo and the subjects on the 50 mg dose who have not achieved 20% improvement in swollen joint count (SJC66) and tender joint count (TJC68) will be assigned to 100 mg q.d. in a blinded fashion and will continue treatment until Week 24. Subjects in the other groups will maintain their randomized treatment until Week 24.
This assay relies on a homogeneous enzymatic colorimetric test. In the presence of magnesium ions, dextran sulfate selectively forms water-soluble complexes with LDL, VLDL and chylomicrons which are resistant to PEG-modified enzymes.
The cholesterol concentration of [HDL]-cholesterol is determined enzymatically by cholesterol esterase and cholesterol oxidase coupled with PEG to the amino groups (approx. 40%).
In the presence of peroxidase, the hydrogen peroxide generated reacts with 4-amino-antipyrine and Sodium N-(2-hydroxy-3-sulfopropyl)-3,5-dimethoxyaniline (HSDA) to form a purple-blue dye. The color intensity of this dye is directly proportional to the cholesterol concentration and is measured photometrically.
Human serum and plasma samples [HDL] determination was done on a Roche/Hitachi Cobas c 701/702 system which automatically calculate the analyte concentration of each sample. Samples containing precipitates are centrifuged before performing the assay.

[1] = placebo switching to 100 mg q.d. at week 12 (N = 72), week 16
[2] = placebo switching to 100 mg q.d. at week 12 (N = 72), week 20
[3] = placebo switching to 100 mg q.d. at week 12 (N = 72), week 24
[4] = placebo switching to 100 mg q.d. at week 12, week 16
[5] = placebo switching to 100 mg q.d. at week 12, week 20
[6] = placebo switching to 100 mg q.d. at week 12, week 24

O=C(Nc1nc2cccc(-c3ccc(CN4CCS(=O)(=O)CC4)cc3)n2n1)C1CC1 [Compound 1, cyclopropanecarboxylic acid {5-[4-(1,1-dioxo-thiomorpholin-4-ylmethyl)-phenyl]-[1,2,4]triazolo[1,5-a]pyridin-2yl}-amide]
[HDL] Mean CFB - 24 weeks results (100 mg q.d. (N = 70), week 8): 0.17 mmol/L | [HDL] Median CFB (100 mg q.d. (N = 70), week 8): 0.140 mmol/L | [HDL] Median CFB - 24 weeks results (100 mg q.d. (N = 70), week 8): 0.14 mmol/L | [HDL] Mean CFB (100 mg q.d. (N = 70), week 12): 0.190 mmol/L | [HDL] Mean CFB - 24 weeks results (100 mg q.d. (N = 70), week 12): 0.19 mmol/L | [HDL] Median CFB (100 mg q.d. (N = 70), week 12): 0.150 mmol/L | [HDL] Median CFB - 24 weeks results (100 mg q.d. (N = 70), week 12): 0.15 mmol/L | [HDL] Mean CFB - 24 weeks results (100 mg q.d. (N = 70), week 16): 0.23 mmol/L | [HDL] Median CFB - 24 weeks results (100 mg q.d. (N = 70), week 16): 0.20 mmol/L | [HDL] Mean CFB - 24 weeks results (100 mg q.d. (N = 70), week 20): 0.19 mmol/L | [HDL] Median CFB - 24 weeks results (100 mg q.d. (N = 70), week 20): 0.17 mmol/L | [HDL] Mean CFB - 24 weeks results (100 mg q.d. (N = 70), week 24): 0.18 mmol/L | [HDL] Median CFB - 24 weeks results (100 mg q.d. (N = 70), week 24): 0.18 mmol/L | [HDL] Mean percentage CFB - 12 weeks results (100 mg q.d., week 1): 7.49% | [HDL] Mean percentage CFB - 24 weeks results (100 mg q.d., week 1): 7.49% | [HDL] Median percentage CFB - 12 weeks results (100 mg q.d., week 1): 3.27% | [HDL] Mean percentage CFB - 12 weeks results (100 mg q.d., week 2): 11.30% | [HDL] Mean percentage CFB - 24 weeks results (100 mg q.d., week 2): 11.30% | [HDL] Median percentage CFB - 12 weeks results (100 mg q.d., week 2): 8.75% | [HDL] Mean percentage CFB - 12 weeks results (100 mg q.d., week 4): 15.65% | [HDL] Mean percentage CFB - 24 weeks results (100 mg q.d., week 4): 15.65% | [HDL] Median percentage CFB - 12 weeks results (100 mg q.d., week 4): 12.66% | [HDL] Mean percentage CFB - 12 weeks results (100 mg q.d., week 8): 13.77% | [HDL] Mean percentage CFB - 24 weeks results (100 mg q.d., week 8): 13.77% | [HDL] Median percentage CFB - 12 weeks results (100 mg q.d., week 8): 9.33% | [HDL] Mean percentage CFB - 12 weeks results (100 mg q.d., week 12): 15.23% | [HDL] Mean percentage CFB - 24 weeks results (100 mg q.d., week 12): 15.23% | [HDL] Median percentage CFB - 12 weeks results (100 mg q.d., week 12): 11.86% | [HDL] Median percentage CFB - 24 weeks results (100 mg q.d., week 16): 14.81% | [HDL] Mean percentage CFB - 24 weeks results (100 mg q.d., week 20): 14.51% | [HDL] Median percentage CFB - 24 weeks results (100 mg q.d., week 20): 13.29% | [HDL] Mean percentage CFB - 24 weeks results (100 mg q.d., week 24): 15.18% | [HDL] Median percentage CFB - 24 weeks results (100 mg q.d., week 24): 12.54% | [HDL] Mean CFB (200 mg q.d. (N = 69), week 1): 0.026 mmol/L | [HDL] Mean CFB - 24 weeks results (200 mg q.d. (N = 69), week 1): 0.03 mmol/L | [HDL] Median CFB (200 mg q.d. (N = 69), week 1): 0.030 mmol/L | [HDL] Median CFB - 24 weeks results (200 mg q.d. (N = 69), week 1): 0.03 mmol/L | [HDL] Mean CFB (200 mg q.d. (N = 69), week 2): 0.163 mmol/L | [HDL] Mean CFB - 24 weeks results (200 mg q.d. (N = 69), week 2): 0.16 mmol/L | [HDL] Median CFB (200 mg q.d. (N = 69), week 2): 0.150 mmol/L | [HDL] Median CFB - 24 weeks results (200 mg q.d. (N = 69), week 2): 0.15 mmol/L | [HDL] Mean CFB (200 mg q.d. (N = 69), week 4): 0.220 mmol/L | [HDL] Mean CFB - 24 weeks results (200 mg q.d. (N = 69), week 4): 0.22 mmol/L | [HDL] Median CFB (200 mg q.d. (N = 69), week 4): 0.210 mmol/L | [HDL] Median CFB - 24 weeks results (200 mg q.d. (N = 69), week 4): 0.21 mmol/L | [HDL] Mean CFB (200 mg q.d. (N = 69), week 8): 0.219 mmol/L | [HDL] Mean CFB - 24 weeks results (200 mg q.d. (N = 69), week 8): 0.22 mmol/L | [HDL] Median CFB (200 mg q.d. (N = 69), week 8): 0.200 mmol/L | [HDL] Median CFB - 24 weeks results (200 mg q.d. (N = 69), week 8): 0.20 mmol/L | [HDL] Mean CFB (200 mg q.d. (N = 69), week 12): 0.194 mmol/L | [HDL] Mean CFB - 24 weeks results (200 mg q.d. (N = 69), week 12): 0.19 mmol/L | [HDL] Median CFB (200 mg q.d. (N = 69), week 12): 0.150 mmol/L | [HDL] Median CFB - 24 weeks results (200 mg q.d. (N = 69), week 12): 0.15 mmol/L | [HDL] Mean CFB - 24 weeks results (200 mg q.d. (N = 69), week 16): 0.19 mmol/L | [HDL] Median CFB - 24 weeks results (200 mg q.d. (N = 69), week 16): 0.16 mmol/L | [HDL] Mean CFB - 24 weeks results (200 mg q.d. (N = 69), week 20): 0.21 mmol/L | [HDL] Median CFB - 24 weeks results (200 mg q.d. (N = 69), week 20): 0.16 mmol/L | [HDL] Mean CFB - 24 weeks results (200 mg q.d. (N = 69), week 24): 0.19 mmol/L | [HDL] Median CFB - 24 weeks results (200 mg q.d. (N = 69), week 24): 0.16 mmol/L | [HDL] Mean percentage CFB - 12 weeks results (200 mg q.d., week 1): 2.04% | [HDL] Mean percentage CFB - 24 weeks results (200 mg q.d., week 1): 2.04% | [HDL] Median percentage CFB - 12 weeks results (200 mg q.d., week 1): 2.50% | [HDL] Mean percentage CFB - 12 weeks results (200 mg q.d., week 2): 11.20% | [HDL] Mean percentage CFB - 24 weeks results (200 mg q.d., week 2): 11.20% | [HDL] Median percentage CFB - 12 weeks results (200 mg q.d., week 2): 9.92% | [HDL] Mean percentage CFB - 12 weeks results (200 mg q.d., week 4): 15.68% | [HDL] Mean percentage CFB - 24 weeks results (200 mg q.d., week 4): 15.68% | [HDL] Median percentage CFB - 12 weeks results (200 mg q.d., week 4): 14.18% | [HDL] Mean percentage CFB - 12 weeks results (200 mg q.d., week 8): 15.24% | [HDL] Mean percentage CFB - 24 weeks results (200 mg q.d., week 8): 15.24% | [HDL] Median percentage CFB - 12 weeks results (200 mg q.d., week 8): 16.35% | [HDL] Mean percentage CFB - 12 weeks results (200 mg q.d., week 12): 14.60% | [HDL] Mean percentage CFB - 24 weeks results (200 mg q.d., week 12): 14.60% | [HDL] Median percentage CFB - 12 weeks results (200 mg q.d., week 12): 12.00% | [HDL] Mean percentage CFB - 24 weeks results (200 mg q.d., week 16): 13.07% | [HDL] Mean percentage CFB - 24 weeks results (200 mg q.d., week 20): 15.18% | [HDL] Median percentage CFB - 24 weeks results (200 mg q.d., week 20): 11.54% | [HDL] Mean percentage CFB - 24 weeks results (200 mg q.d., week 24): 13.79% | [HDL] Median percentage CFB - 24 weeks results (200 mg q.d., week 24): 11.96% | [HDL] Mean CFB - 24 weeks results [1]: 0.19 mmol/L | [HDL] Median CFB - 24 weeks results [1]: 0.16 mmol/L | [HDL] Mean CFB - 24 weeks results [2]: 0.19 mmol/L | [HDL] Median CFB - 24 weeks results [2]: 0.18 mmol/L | [HDL] Mean CFB - 24 weeks results [3]: 0.16 mmol/L | [HDL] Median CFB - 24 weeks results [3]: 0.15 mmol/L | [HDL] Mean percentage CFB - 24 weeks results [4]: 16.36% | [HDL] Median percentage CFB - 24 weeks results [4]: 10.82% | [HDL] Mean percentage CFB - 24 weeks results [5]: 16.02% | [HDL] Median percentage CFB - 24 weeks results [5]: 13.11% | [HDL] Mean percentage CFB - 24 weeks results [6]: 13.47% | [HDL] Median percentage CFB - 24 weeks results [6]: 11.36%
